Measured values published in ChEMBL document CHEMBL5500423, “More than an Amide Bioisostere: Discovery of 1,2,4-Triazole-containing Pyrazolo[1,5-a]pyrimidine Host CSNK2 Inhibitors for Combatting β-Coronavirus Replication” (J Med Chem, 2024).
The source made the active and inactive calls. No cut-off for these calls is given here.

Key:
Format in all cases: functional, organism-based
SARS-CoV-2 [1] = assay: Antiviral activity against activity SARS-CoV-2 infected in human A549-ACE2 cells assessed as inhibition of viral replication pretreated with cells for 1 hrs followed by viral infected for 2 hrs and replacement with fresh medium containing compounds and measured 48 hrs post infection; conditions: Severe acute respiratory syndrome coronavirus 2, A549-ACE2
SARS-CoV-2 [2] = conditions: Severe acute respiratory syndrome coronavirus 2; MA10; dose 10.0 mg/kg, route ip, time 36.0 hrs
Mus musculus [3] = conditions: CD-1, dose 10.0 mg/kg, route ip, time 36.0 hrs
Mus musculus [4] = conditions: CD-1, dose 10.0 mg/kg, route ip, time 36.0 hrs; remark: listed apart in the source

## CCN(CCN)c1ccc(Nc2cc(NC3CC3)n3ncc(C#N)c3n2)cc1-n1cnnc1
SARS-CoV-2 [1]
  IC50: 390 nM
SARS-CoV-2 [2]
  Activity: inactive
Mus musculus [3]
  inhibition: inactive
Mus musculus [4]
  inhibition: inactive
